According to publication PMC7083837 (Nature Communications, 2020):
Several values for one entry are separate records, joined by “and”; a condition that tells them apart may be missing. Equal entries are not always repeated.

How the values were obtained:
SERT WT [1] = target: T1, SERT WT (Homo sapiens, UniProt P31645); assay: [3H]5-HT uptake in intact COS-7 cells; assay type: cell-based; conditions: read-out: KM (5-HT); SERT WT
T1 construct: expressed in transfected cells; host or cells: COS-7

SERT WT [2] = target: T1, SERT WT; assay: [3H]S-CIT competition (equilibrium) binding on COS-7 membranes; conditions: COS-7 membranes, SERT WT; read-out: Inhibition of [^3H]S-CIT binding (IC50);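 note: transiently transfected cell membranes incubated 1 h at room temperature with 5–10 nM [3H]S-CIT, nonspecific binding defined using 5 µM paroxetine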
SERT WT [3] = target: T1, SERT WT; assay: [3H]IMI dissociation rate assay (allosteric potency); assay type: binding; conditions: SERT WT; for IC50: read-out: Allosteric potency inhibition of [^3H]IMI dissociation (IC50);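 for all read-outs here: membranes of COS-7 cells transiently expressing hSERT, dissociation of prebound radioligand tracked by filtration over seven time points (5–70 min), rate constant with test ligand expressed relative to buffer-only rate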
SERT WT [4] = target: T1, SERT WT; assay: [3H]S-CIT dissociation rate assay (allosteric potency); assay type: binding; conditions: for IC50: read-out: Allosteric potency inhibition of [^3H]S-CIT dissociation (IC50)
[5] = tested on: extracellular 5-HT levels in rat hippocampus; assay: Microdialysis in ventral hippocampus of freely moving rats; assay type: in vivo; parameters: extracellular 5-HT level / AUC: unit not given here; conditions: single animals;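 for extracellular 5-HT level: percent of mean basal level in three fractions before perfusion start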
[6] = log conc -5.4318, listed as AE56461
[7] = log conc -5.9101, listed as AE56461
[8] = log conc -5.9101, listed as AF60098

T1 sequence (P31645 whole entry): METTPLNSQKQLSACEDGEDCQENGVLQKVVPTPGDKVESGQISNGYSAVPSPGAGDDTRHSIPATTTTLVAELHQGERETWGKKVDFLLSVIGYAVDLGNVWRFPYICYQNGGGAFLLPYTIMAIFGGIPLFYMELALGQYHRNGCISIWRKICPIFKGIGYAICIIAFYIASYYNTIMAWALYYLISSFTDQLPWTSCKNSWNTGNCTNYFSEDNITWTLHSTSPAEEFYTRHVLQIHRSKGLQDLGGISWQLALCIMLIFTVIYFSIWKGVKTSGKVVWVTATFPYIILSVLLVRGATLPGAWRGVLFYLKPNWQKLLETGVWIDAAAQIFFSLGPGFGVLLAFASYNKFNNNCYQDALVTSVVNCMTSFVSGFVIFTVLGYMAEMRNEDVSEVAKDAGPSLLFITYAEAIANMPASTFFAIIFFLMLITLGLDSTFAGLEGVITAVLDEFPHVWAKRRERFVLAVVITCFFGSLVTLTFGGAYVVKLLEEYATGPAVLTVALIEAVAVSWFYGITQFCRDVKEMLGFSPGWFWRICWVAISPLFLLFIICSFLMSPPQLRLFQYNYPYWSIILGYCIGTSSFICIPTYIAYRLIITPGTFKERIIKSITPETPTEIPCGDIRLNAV

## NCCc1c[nH]c2ccc(O)cc12 [5-HT, Serotonin, reference compound]
SERT WT [1]
  Km: 0.52 µM

## NC(=O)c1ccc2c(c1)CO[C@@]2(CCCN1CCC(c2ccc3c(c2)NC(=O)CC3)CC1)c1ccc(F)cc1 [AE, (S)-1-(4-fluorophenyl)-1-(3-(4-(2-oxo-1,2,3,4-tetrahydroquinolin-7-yl)piperidin-1-yl)propyl)-1,3-dihydroisobenzofuran-5-carboxamide]
SERT WT [2]
  IC50: 1.04 µM
SERT WT [3]; log conc -4.4776, listed as AE56461
  [^3H]IMI dissociation relative to control (source data Fig 3C): 0.06439 and 0.064 and 0.0867 and 0.04446 and 0.04701
SERT WT [3]; [6]
  [^3H]IMI dissociation relative to control (source data Fig 3C): 0.0763 and 0.076 and 0.0996 and 0.0916 and 0.07313
SERT WT [3]; [7]
  [^3H]IMI dissociation relative to control (source data Fig 3C): 0.1205 and 0.121 and 0.184 and 0.1786 and 0.1244
SERT WT [3]; log conc -6.3856, listed as AE56461
  [^3H]IMI dissociation relative to control (source data Fig 3C): 0.2609 and 0.261 and 0.334 and 0.3145 and 0.2627
SERT WT [3]; log conc -6.8627, listed as AE56461
  [^3H]IMI dissociation relative to control (source data Fig 3C): 0.4485 and 0.449 and 0.476 and 0.4376 and 0.458
SERT WT [3]; log conc -7.3398, listed as AE56461
  [^3H]IMI dissociation relative to control (source data Fig 3C): 0.6779 and 0.678 and 0.684 and 0.679 and 0.715
SERT WT [3]; log conc -7.817, listed as AE56461
  [^3H]IMI dissociation relative to control (source data Fig 3C): 0.9119 and 0.9318 and 0.9209 and 0.831 and 0.9158
SERT WT [3]; log conc -8.2941, listed as AE56461
  [^3H]IMI dissociation relative to control (source data Fig 3C): 1.0028 and 1.006 and 0.9639 and 1.0302 and 1.0089
SERT WT [3]; log conc -8.7712, listed as AE56461
  [^3H]IMI dissociation relative to control (source data Fig 3C): 0.9594 and 0.977 and 0.9693 and 1.1187 and 1.1091
SERT WT [3]
  IC50: 0.119 µM and 0.12 µM
SERT WT [4]; log conc -4, listed as AE56461
  [^3H]S-CIT dissociation relative to control (source data Fig 3B): 0.304 and 0.27 and 0.327
SERT WT [4]; log conc -4.47756, listed as AE56461
  [^3H]S-CIT dissociation relative to control (source data Fig 3B): 0.466 and 0.496 and 0.522
SERT WT [4]; log conc -4.95468, listed as AE56461
  [^3H]S-CIT dissociation relative to control (source data Fig 3B): 0.654 and 0.732 and 0.716
SERT WT [4]; [6]
  [^3H]S-CIT dissociation relative to control (source data Fig 3B): 0.892 and 0.93 and 0.888
SERT WT [4]; [7]
  [^3H]S-CIT dissociation relative to control (source data Fig 3B): 0.912 and 1.007 and 0.973
SERT WT [4]; log conc -6.38561, listed as AE56461
  [^3H]S-CIT dissociation relative to control (source data Fig 3B): 0.927 and 1.032 and 0.97
SERT WT [4]; log conc -6.86273, listed as AE56461
  [^3H]S-CIT dissociation relative to control (source data Fig 3B): 0.952 and 1.031 and 0.987
SERT WT [4]
  IC50: 33.8 µM

## NC(=O)c1ccc2c(c1)CO[C@@]2(CCCN1CC=C(c2ccc3ccc(=O)[nH]c3c2)CC1)c1ccc(F)cc1 [AF, (S)-1-(4-fluorophenyl)-1-(3-(4-(2-oxo-1,2-dihydroquinolin-7-yl)-3,6-dihydropyridin-1(2H)-yl)propyl)-1,3-dihydroisobenzofuran-5-carboxamide]
SERT WT [2]
  IC50: 0.079 µM
SERT WT [3]; [8]
  [^3H]IMI dissociation relative to control (source data Fig 3C): 0.2397 and 0.2132 and 0.1806 and 0.1901 and 0.1781
SERT WT [3]; log conc -6.3856, listed as AF60098
  [^3H]IMI dissociation relative to control (source data Fig 3C): 0.6028 and 0.4774 and 0.425 and 0.3481 and 0.3211
SERT WT [3]; log conc -6.8627, listed as AF60098
  [^3H]IMI dissociation relative to control (source data Fig 3C): 0.7993 and 0.6981 and 0.6134 and 0.5939 and 0.5386
SERT WT [3]; log conc -7.3398, listed as AF60098
  [^3H]IMI dissociation relative to control (source data Fig 3C): 0.7825 and 0.9163 and 0.612 and 0.781 and 0.6966
SERT WT [3]; log conc -7.817, listed as AF60098
  [^3H]IMI dissociation relative to control (source data Fig 3C): 0.8219 and 0.9518 and 0.9715 and 0.9341 and 0.8939
SERT WT [3]
  IC50: 0.192 µM and 0.19 µM
SERT WT [4]; log conc -4, listed as AF60098
  [^3H]S-CIT dissociation relative to control (source data Fig 3B): 0.1701 and 0.2211 and 0.1573 and 0.2182 and 0.2661
SERT WT [4]; log conc -4.47756, listed as AF60098
  [^3H]S-CIT dissociation relative to control (source data Fig 3B): 0.2756 and 0.2914 and 0.2326 and 0.2923 and 0.3084
SERT WT [4]; log conc -4.95468, listed as AF60098
  [^3H]S-CIT dissociation relative to control (source data Fig 3B): 0.3758 and 0.4105 and 0.4138 and 0.4162 and 0.3863
SERT WT [4]; log conc -5.4318, listed as AF60098
  [^3H]S-CIT dissociation relative to control (source data Fig 3B): 0.7059 and 0.6013 and 0.6811 and 0.5633 and 0.7156
SERT WT [4]; [8]
  [^3H]S-CIT dissociation relative to control (source data Fig 3B): 0.8853 and 0.874 and 0.8934 and 0.8911 and 0.9427
SERT WT [4]; log conc -6.38561, listed as AF60098
  [^3H]S-CIT dissociation relative to control (source data Fig 3B): 0.9692 and 0.7987 and 0.9599 and 0.9034 and 0.9936
SERT WT [4]; log conc -6.86273, listed as AF60098
  [^3H]S-CIT dissociation relative to control (source data Fig 3B): 0.955 and 0.9328 and 0.9433 and 0.9567 and 0.9549
SERT WT [4]
  IC50: 10.4 µM

## CN(C)CCCN1c2ccccc2CCc2ccccc21 [imipramine, reference compound]
[5]; Fig 6B Inset
  AUC: 84 and 92 and 130 and 62 and 48 and 46 and 143 and 182 and 163 and 129 and 74 and 127 and 73
[5]; Fig 6B, Time -40
  extracellular 5-HT level: 77.25 and 153.32 and 98.52 and 112.22 and 48.77 and 123.66 and 115.15 and 92.18 and 91.72 and 110.66 and 146.17
